Source: patent US4820867A, “Phenoxypropoxy halophenylacetic acids as leukotriene antagonists” (Merck Frosst Canada, Inc., priority 1986, dated 1989)

System: leukotriene D4 induced bronchoconstriction
Assay: inhibition of leukotriene D4 induced bronchoconstriction in anaesthetized guinea pigs (modified Konzett-Rossler)
Type: in vivo, guinea pig
Parameters: % Inhibition After 30 Min.: concentration or dose not given beside the values
Details: for ED50: Cavia porcellus, 10 min, directly into the duodenum, dose producing 50% inhibition when given 10 minutes before LTD4, read-out: ED50 (median effective dose), inhibition of LTD4 induced bronchoconstriction; for % Inhibition After 30 Min.: inhibition of LTD4 induced bronchoconstriction, intraduodenal, 30 min after antagonist administration
Protocol: The antagonist activity of the compounds of the present invention was determined by measuring their ability to inhibit leukotriene D4 induced bronchoconstriction in anaesthetized guinea pigs (modified Konzett-Rossler). When administrated directly into the duodenum (oral activity) they are active at 2.5-5 mg/kg. Oral activity is defined as the dose producing 50% inhibition when given 10 minutes before LTD4. Percent inhibition was determined at 10 minutes and also at 30 and 50 minutes after antagonist administration. The time interval between LTD4 administration was kept constant at 20 minutes in all experiments.
Table I is a comparison between three known leukotriene antagonists (entries 1, 2 and 3, see: G.B. Pat. No. 2,058,785, supra) and several compounds of the present invention (4-9).

SMILES	ED50 [mg/kg]	% Inhibition After 30 Min. [%]
CCCc1c(OCCCOc2ccc(C(=O)O)cc2)ccc(C(C)=O)c1O [Entry 1, reference compound]	10	59
CCCc1c(OCCCOc2cccc(CCC(=O)O)c2)ccc(C(C)=O)c1O [Entry 2, reference compound]	10	32
CCCc1c(OCCCOc2ccc(C=CC(=O)O)cc2)ccc(C(C)=O)c1O [Entry 3, reference compound]	20	56
CCCc1c(OCCCOc2ccc(CC(=O)O)cc2F)ccc(C(C)=O)c1O [Entry 4, 4-(3-(4-Acetyl-3-hydroxy-2-propylphenoxy)-propoxy)-3-fluorobenzene acetic acid]	10	100
CCCc1c(OCC(O)COc2ccc(CC(=O)O)cc2F)ccc(C(C)=O)c1O (stereo not drawn) [Entry 5, 4-(3-(4-Acetyl-3-hydroxy-2-propylphenoxy)-2-hydroxypropoxy)-3-fluorobenzeneacetic acid]	2.5	50
CCCc1c(OCC(O)COc2ccc(CC(=O)O)cc2Br)ccc(C(C)=O)c1O (stereo not drawn) [Entry 6, 4-(3-(4-Acetyl-3-hydroxy-2-propylphenoxy)-2-hydroxypropoxy)-3-bromobenzene acetic acid]	2.5	35
CCCc1c(OCC(O)COc2ccc(CC(=O)O)cc2Cl)ccc(C(C)=O)c1O (stereo not drawn) [Entry 7, 4-(3-(4-Acetyl-3-hydroxy-2-propylphenoxy)-2-hydroxypropoxy)-3-chlorobenzeneacetic acid]	10	63
CCCc1c(OCCCOc2ccc(CC(=O)O)cc2Cl)ccc(C(C)=O)c1O [Entry 8, 4-(3-(4-acetyl-3-hydroxy-2-propylphenoxy)propoxy)-3-chlorobenzene acetic]	5	60
CCCc1c(OCCCOc2ccc(CC(=O)O)cc2Br)ccc(C(C)=O)c1O [Entry 9, 4-(3-(4-Acetyl-3-hydroxy-2-propylphenoxy)-propoxy)-3-bromobenzene acetic acid]	10	87
